Measurements taken from the NIST ThermoML archive (doi:10.1016/j.jct.2009.11.004).
Numbers after ± are expanded uncertainties.

Conditions: 313.15 K; 101.33 kPa; Liquid; Concentric cylinders viscometry

SMILES | viscosity
CCCCCCCC[n+]1ccccc1.O=S(=O)([N-]S(=O)(=O)C(F)(F)F)C(F)(F)F [1-octylpyridinium bis((trifluoromethyl)sulfonyl)amide] | 56.33 ± 1.3 mPa·s
CCCCCCCCCC[n+]1ccccc1.O=S(=O)([N-]S(=O)(=O)C(F)(F)F)C(F)(F)F [1-decylpyridinium bis(trifluoromethylsulfonyl)imide] | 72.07 ± 1.6 mPa·s
CCCC[n+]1ccccc1.O=S(=O)([N-]S(=O)(=O)C(F)(F)F)C(F)(F)F [1-butylpyridinium bis[(trifluoromethyl)sulfonyl]imide] | 32.83 ± 0.74 mPa·s

Same assay, conditions: 313.15 K; 101.33 kPa; Liquid; Vibrating tube method

SMILES | mass density
CCCCCCCCCCCC[n+]1ccccc1.O=S(=O)([N-]S(=O)(=O)C(F)(F)F)C(F)(F)F [1-dodecylpyridinium bis(trifluoromethylsulfonyl)imide] | 1236.4 ± 1.6 kg/m3
CCCCCCCC[n+]1ccccc1.O=S(=O)([N-]S(=O)(=O)C(F)(F)F)C(F)(F)F [1-octylpyridinium bis((trifluoromethyl)sulfonyl)amide] | 1313.9 ± 1.7 kg/m3
CCCCCCCCCC[n+]1ccccc1.O=S(=O)([N-]S(=O)(=O)C(F)(F)F)C(F)(F)F [1-decylpyridinium bis(trifluoromethylsulfonyl)imide] | 1270.9 ± 1.7 kg/m3
CCCC[n+]1ccccc1.O=S(=O)([N-]S(=O)(=O)C(F)(F)F)C(F)(F)F [1-butylpyridinium bis[(trifluoromethyl)sulfonyl]imide] | 1433.6 ± 2 kg/m3

Same assay, conditions: 318.15 K; 101.33 kPa; Liquid; Concentric cylinders viscometry

SMILES | viscosity
CCCCCCCCCCCC[n+]1ccccc1.O=S(=O)([N-]S(=O)(=O)C(F)(F)F)C(F)(F)F [1-dodecylpyridinium bis(trifluoromethylsulfonyl)imide] | 72.83 ± 1.7 mPa·s
CCCCCCCC[n+]1ccccc1.O=S(=O)([N-]S(=O)(=O)C(F)(F)F)C(F)(F)F [1-octylpyridinium bis((trifluoromethyl)sulfonyl)amide] | 45.9 ± 1 mPa·s
CCCCCCCCCC[n+]1ccccc1.O=S(=O)([N-]S(=O)(=O)C(F)(F)F)C(F)(F)F [1-decylpyridinium bis(trifluoromethylsulfonyl)imide] | 58.06 ± 1.3 mPa·s
CCCC[n+]1ccccc1.O=S(=O)([N-]S(=O)(=O)C(F)(F)F)C(F)(F)F [1-butylpyridinium bis[(trifluoromethyl)sulfonyl]imide] | 27.56 ± 0.62 mPa·s

Same assay, conditions: 318.15 K; 101.33 kPa; Liquid; Vibrating tube method

SMILES | mass density
CCCCCCCCCCCC[n+]1ccccc1.O=S(=O)([N-]S(=O)(=O)C(F)(F)F)C(F)(F)F [1-dodecylpyridinium bis(trifluoromethylsulfonyl)imide] | 1232.3 ± 1.6 kg/m3
CCCCCCCC[n+]1ccccc1.O=S(=O)([N-]S(=O)(=O)C(F)(F)F)C(F)(F)F [1-octylpyridinium bis((trifluoromethyl)sulfonyl)amide] | 1309.6 ± 1.7 kg/m3
CCCCCCCCCC[n+]1ccccc1.O=S(=O)([N-]S(=O)(=O)C(F)(F)F)C(F)(F)F [1-decylpyridinium bis(trifluoromethylsulfonyl)imide] | 1266.8 ± 1.6 kg/m3
CCCC[n+]1ccccc1.O=S(=O)([N-]S(=O)(=O)C(F)(F)F)C(F)(F)F [1-butylpyridinium bis[(trifluoromethyl)sulfonyl]imide] | 1429 ± 2 kg/m3

Same assay, conditions: 323.15 K; 101.33 kPa; Liquid; Concentric cylinders viscometry

SMILES | viscosity
CCCCCCCCCCCC[n+]1ccccc1.O=S(=O)([N-]S(=O)(=O)C(F)(F)F)C(F)(F)F [1-dodecylpyridinium bis(trifluoromethylsulfonyl)imide] | 58.88 ± 1.3 mPa·s
CCCCCCCC[n+]1ccccc1.O=S(=O)([N-]S(=O)(=O)C(F)(F)F)C(F)(F)F [1-octylpyridinium bis((trifluoromethyl)sulfonyl)amide] | 37.91 ± 0.86 mPa·s
CCCCCCCCCC[n+]1ccccc1.O=S(=O)([N-]S(=O)(=O)C(F)(F)F)C(F)(F)F [1-decylpyridinium bis(trifluoromethylsulfonyl)imide] | 47.46 ± 1.1 mPa·s
CCCC[n+]1ccccc1.O=S(=O)([N-]S(=O)(=O)C(F)(F)F)C(F)(F)F [1-butylpyridinium bis[(trifluoromethyl)sulfonyl]imide] | 23.4 ± 0.53 mPa·s

Same assay, conditions: 323.15 K; 101.33 kPa; Liquid; Vibrating tube method

SMILES | mass density
CCCCCCCCCCCC[n+]1ccccc1.O=S(=O)([N-]S(=O)(=O)C(F)(F)F)C(F)(F)F [1-dodecylpyridinium bis(trifluoromethylsulfonyl)imide] | 1228.2 ± 1.6 kg/m3
CCCCCCCC[n+]1ccccc1.O=S(=O)([N-]S(=O)(=O)C(F)(F)F)C(F)(F)F [1-octylpyridinium bis((trifluoromethyl)sulfonyl)amide] | 1305.3 ± 1.7 kg/m3
CCCCCCCCCC[n+]1ccccc1.O=S(=O)([N-]S(=O)(=O)C(F)(F)F)C(F)(F)F [1-decylpyridinium bis(trifluoromethylsulfonyl)imide] | 1262.6 ± 1.6 kg/m3
CCCC[n+]1ccccc1.O=S(=O)([N-]S(=O)(=O)C(F)(F)F)C(F)(F)F [1-butylpyridinium bis[(trifluoromethyl)sulfonyl]imide] | 1424.3 ± 2 kg/m3

Same assay, conditions: 328.15 K; 101.33 kPa; Liquid; Concentric cylinders viscometry

SMILES | viscosity
CCCCCCCCCCCC[n+]1ccccc1.O=S(=O)([N-]S(=O)(=O)C(F)(F)F)C(F)(F)F [1-dodecylpyridinium bis(trifluoromethylsulfonyl)imide] | 48.25 ± 1.1 mPa·s
CCCCCCCC[n+]1ccccc1.O=S(=O)([N-]S(=O)(=O)C(F)(F)F)C(F)(F)F [1-octylpyridinium bis((trifluoromethyl)sulfonyl)amide] | 31.7 ± 0.72 mPa·s
CCCCCCCCCC[n+]1ccccc1.O=S(=O)([N-]S(=O)(=O)C(F)(F)F)C(F)(F)F [1-decylpyridinium bis(trifluoromethylsulfonyl)imide] | 39.29 ± 0.89 mPa·s
CCCC[n+]1ccccc1.O=S(=O)([N-]S(=O)(=O)C(F)(F)F)C(F)(F)F [1-butylpyridinium bis[(trifluoromethyl)sulfonyl]imide] | 20.08 ± 0.45 mPa·s

Same assay, conditions: 328.15 K; 101.33 kPa; Liquid; Vibrating tube method

SMILES | mass density
CCCCCCCCCCCC[n+]1ccccc1.O=S(=O)([N-]S(=O)(=O)C(F)(F)F)C(F)(F)F [1-dodecylpyridinium bis(trifluoromethylsulfonyl)imide] | 1224.1 ± 1.6 kg/m3
CCCCCCCC[n+]1ccccc1.O=S(=O)([N-]S(=O)(=O)C(F)(F)F)C(F)(F)F [1-octylpyridinium bis((trifluoromethyl)sulfonyl)amide] | 1301.1 ± 1.7 kg/m3
CCCCCCCCCC[n+]1ccccc1.O=S(=O)([N-]S(=O)(=O)C(F)(F)F)C(F)(F)F [1-decylpyridinium bis(trifluoromethylsulfonyl)imide] | 1258.5 ± 1.6 kg/m3
CCCC[n+]1ccccc1.O=S(=O)([N-]S(=O)(=O)C(F)(F)F)C(F)(F)F [1-butylpyridinium bis[(trifluoromethyl)sulfonyl]imide] | 1419.7 ± 1.9 kg/m3

Same assay, conditions: 333.15 K; 101.33 kPa; Liquid; Concentric cylinders viscometry

SMILES | viscosity
CCCCCCCCCCCC[n+]1ccccc1.O=S(=O)([N-]S(=O)(=O)C(F)(F)F)C(F)(F)F [1-dodecylpyridinium bis(trifluoromethylsulfonyl)imide] | 40.02 ± 0.9 mPa·s
CCCCCCCC[n+]1ccccc1.O=S(=O)([N-]S(=O)(=O)C(F)(F)F)C(F)(F)F [1-octylpyridinium bis((trifluoromethyl)sulfonyl)amide] | 26.8 ± 0.61 mPa·s
CCCCCCCCCC[n+]1ccccc1.O=S(=O)([N-]S(=O)(=O)C(F)(F)F)C(F)(F)F [1-decylpyridinium bis(trifluoromethylsulfonyl)imide] | 32.91 ± 0.74 mPa·s
CCCC[n+]1ccccc1.O=S(=O)([N-]S(=O)(=O)C(F)(F)F)C(F)(F)F [1-butylpyridinium bis[(trifluoromethyl)sulfonyl]imide] | 17.4 ± 0.39 mPa·s

Same assay, conditions: 333.15 K; 101.33 kPa; Liquid; Vibrating tube method

SMILES | mass density
CCCCCCCCCCCC[n+]1ccccc1.O=S(=O)([N-]S(=O)(=O)C(F)(F)F)C(F)(F)F [1-dodecylpyridinium bis(trifluoromethylsulfonyl)imide] | 1220.1 ± 1.6 kg/m3
